Read-outs that look alike come from different tables or passages of the source.
Columns and labels:
[1] = molecular target: PI3Kα (Homo sapiens (Human), UniProt P42336); assay: Inhibition of PI3Kα efficacy assay (ADP-Glo kinase assay); type: biochemical; conditions: read-out: PI3Kα inhibitory activity (IC50)
Summary of the method: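 ADP-Glo luminescent detection of ADP from PI3Kα acting on PI substrate with ATP, 60 min at RT; compounds in 8-point five-fold serial dilution from 2 mM DMSO stock. IC50 from four-parameter variable-slope fit.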

[2] = system: NCI-H358 cells (KRAS G12C mutant); assay: NCI-H358 cell proliferation inhibition (CellTiter-Glo); type: cell-based; conditions: Homo sapiens, NCI-H358, 72 h; H358 cells (G12C mutation), 3 days, Table 6; read-out: NCI-H358 (IC50)
[3] = system: MIA PaCa-2 cells (KRAS G12C mutant); assay: MIA PaCa-2 cell anti-proliferation (CellTiter-Glo); type: cell-based; conditions: Homo sapiens
Protocol: The number of viable cells was determined using the CellTiter-Glo® assay to evaluate the anti-proliferation efficacy of compounds. […] The compounds were serially diluted 4-fold in DMSO to obtain 9 concentrations, and then further diluted with DMEM (10% FBS+2.5% horse serum+1% penicillin/streptomycin) cell culture medium to obtain the working solutions (2×), 15 μL of each working solution was added to the cell culture supernatant in each well, and the cells were further incubated for 3 days at 37° C. with 5% CO2. The plate was then equilibrated with CellTiter-Glo® reagent at room temperature (25° C.) for 30 minutes. After adding 25 μL of CellTiter-Glo®, reagent, the cells were thoroughly mixed with the CellTiter-Glo® reagent using a microplate shaker for 2 minutes, and then incubated at room temperature for at least 30 minutes. […] Data were analyzed using GraphPad Prism for IC50 values (Note: The negative control refers to the group without inhibitor).

[4] = molecular target: PI3Kδ (Homo sapiens (Human), UniProt O00329); assay: Inhibition of PI3Kδ efficacy assay (ADP-Glo kinase assay); type: biochemical; conditions: read-out: PI3Kδ inhibitory activity (IC50)
Summary of the method: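 Luminescent ADP-Glo readout of PI3Kδ: after a 60 min RT reaction with PI/ATP substrate, ATP depletion (40 min) and ADP detection (40 min) steps followed. Compounds tested as eight five-fold serial dilutions; inhibition rates fitted to log(inhibitor) vs. response, variable slope, for IC50.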

[5] = 72 h, MIA Paca-2 cells, 3 days, Table 7, read-out: MIA PaCa-2 (IC50)

Sequence of PI3Kα (P42336 whole entry): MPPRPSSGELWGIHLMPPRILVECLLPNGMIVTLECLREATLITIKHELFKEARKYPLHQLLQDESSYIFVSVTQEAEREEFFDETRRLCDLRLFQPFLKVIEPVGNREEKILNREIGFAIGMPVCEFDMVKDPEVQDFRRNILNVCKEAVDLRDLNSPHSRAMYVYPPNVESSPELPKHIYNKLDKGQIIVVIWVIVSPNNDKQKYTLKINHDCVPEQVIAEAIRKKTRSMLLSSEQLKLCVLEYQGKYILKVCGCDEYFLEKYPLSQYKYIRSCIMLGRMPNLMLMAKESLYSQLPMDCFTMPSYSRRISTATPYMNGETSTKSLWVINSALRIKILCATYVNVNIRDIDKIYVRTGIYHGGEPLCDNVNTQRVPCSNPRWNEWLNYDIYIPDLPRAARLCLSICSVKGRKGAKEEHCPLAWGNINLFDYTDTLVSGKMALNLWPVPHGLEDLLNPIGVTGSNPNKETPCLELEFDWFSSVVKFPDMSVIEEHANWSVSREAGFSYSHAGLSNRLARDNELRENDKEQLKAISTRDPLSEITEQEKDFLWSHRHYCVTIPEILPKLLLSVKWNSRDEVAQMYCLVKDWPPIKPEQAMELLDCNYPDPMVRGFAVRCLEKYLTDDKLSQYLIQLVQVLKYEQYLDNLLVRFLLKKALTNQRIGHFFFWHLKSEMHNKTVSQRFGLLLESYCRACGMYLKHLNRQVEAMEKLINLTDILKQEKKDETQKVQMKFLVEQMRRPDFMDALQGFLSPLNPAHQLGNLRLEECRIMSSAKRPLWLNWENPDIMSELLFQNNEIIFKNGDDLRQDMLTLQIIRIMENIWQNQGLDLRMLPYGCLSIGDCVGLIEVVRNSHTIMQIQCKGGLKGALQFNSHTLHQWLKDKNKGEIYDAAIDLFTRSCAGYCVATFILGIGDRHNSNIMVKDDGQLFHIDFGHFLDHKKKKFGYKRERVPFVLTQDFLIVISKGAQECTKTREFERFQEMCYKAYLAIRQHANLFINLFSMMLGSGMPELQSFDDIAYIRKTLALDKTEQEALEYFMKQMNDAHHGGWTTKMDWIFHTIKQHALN
Sequence of PI3Kα (P27986 whole entry partner): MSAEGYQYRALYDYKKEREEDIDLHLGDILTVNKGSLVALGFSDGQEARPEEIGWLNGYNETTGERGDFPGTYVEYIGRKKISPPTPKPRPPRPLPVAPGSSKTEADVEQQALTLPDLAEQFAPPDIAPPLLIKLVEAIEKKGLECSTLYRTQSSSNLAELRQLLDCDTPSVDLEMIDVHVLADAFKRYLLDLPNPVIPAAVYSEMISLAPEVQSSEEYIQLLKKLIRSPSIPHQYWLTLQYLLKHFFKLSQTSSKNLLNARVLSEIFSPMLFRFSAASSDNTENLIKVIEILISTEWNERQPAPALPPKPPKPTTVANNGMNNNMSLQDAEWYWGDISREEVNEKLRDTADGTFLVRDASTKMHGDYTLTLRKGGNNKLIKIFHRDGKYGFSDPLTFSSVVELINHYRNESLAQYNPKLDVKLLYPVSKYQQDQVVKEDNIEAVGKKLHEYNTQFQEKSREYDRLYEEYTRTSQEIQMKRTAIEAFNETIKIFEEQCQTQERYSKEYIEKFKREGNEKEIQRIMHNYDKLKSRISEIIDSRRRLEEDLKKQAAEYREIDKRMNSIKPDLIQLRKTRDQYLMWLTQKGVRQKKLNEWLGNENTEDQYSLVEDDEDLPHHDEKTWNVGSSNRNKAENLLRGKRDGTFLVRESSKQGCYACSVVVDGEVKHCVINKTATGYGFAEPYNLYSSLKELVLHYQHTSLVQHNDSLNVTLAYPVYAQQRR
Sequence of PI3Kδ (O00329 whole entry): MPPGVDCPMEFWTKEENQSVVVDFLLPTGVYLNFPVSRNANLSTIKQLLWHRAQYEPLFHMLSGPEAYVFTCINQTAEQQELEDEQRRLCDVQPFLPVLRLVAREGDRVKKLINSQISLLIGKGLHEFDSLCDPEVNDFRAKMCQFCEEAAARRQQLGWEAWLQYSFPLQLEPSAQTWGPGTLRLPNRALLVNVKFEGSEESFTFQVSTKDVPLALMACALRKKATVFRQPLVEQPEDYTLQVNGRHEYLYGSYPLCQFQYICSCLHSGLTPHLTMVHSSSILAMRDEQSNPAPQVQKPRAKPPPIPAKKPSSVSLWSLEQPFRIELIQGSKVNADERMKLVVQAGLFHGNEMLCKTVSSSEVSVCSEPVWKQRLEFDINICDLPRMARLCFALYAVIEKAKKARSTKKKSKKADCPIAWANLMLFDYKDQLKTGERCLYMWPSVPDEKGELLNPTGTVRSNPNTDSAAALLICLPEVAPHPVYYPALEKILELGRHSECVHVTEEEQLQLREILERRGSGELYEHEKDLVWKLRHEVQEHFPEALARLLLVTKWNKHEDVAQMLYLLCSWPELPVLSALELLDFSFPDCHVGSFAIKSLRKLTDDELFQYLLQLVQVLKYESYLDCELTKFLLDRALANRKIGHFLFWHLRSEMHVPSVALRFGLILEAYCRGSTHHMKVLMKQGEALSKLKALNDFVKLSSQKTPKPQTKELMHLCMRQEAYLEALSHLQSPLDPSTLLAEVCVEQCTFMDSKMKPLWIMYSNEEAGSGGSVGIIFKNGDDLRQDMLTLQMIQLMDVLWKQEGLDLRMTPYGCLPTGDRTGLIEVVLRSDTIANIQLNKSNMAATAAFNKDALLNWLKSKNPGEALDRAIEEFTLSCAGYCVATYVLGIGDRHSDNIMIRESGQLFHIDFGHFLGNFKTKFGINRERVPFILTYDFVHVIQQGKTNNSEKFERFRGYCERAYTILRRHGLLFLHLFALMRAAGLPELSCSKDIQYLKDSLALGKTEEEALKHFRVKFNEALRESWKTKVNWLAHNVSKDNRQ
Sequence of PI3Kδ (P27986 whole entry partner): as the sequence (P27986 whole entry partner) above

Structure (SMILES)	IC50 ([1]; Table 4) [nM]	IC50 [2] [nM]	IC50 [3, 5] [nM]	IC50 ([3]; MIA PaCa-2, 72 h, read-out: MIA PaCa-2 (IC50, nM)) [nM]	IC50 ([1]; Table 1) [nM]	IC50 ([4]; Table 1) [nM]	IC50 ([4]; Table 4) [nM]	IC50 ([1]; Table 2) [nM]	IC50 ([4]; Table 2) [nM]
CSc1ncc(-c2ccc3ncnc(N4CCN(C(=O)/C=C/C(C)=O)CC4)c3c2)cc1NS(=O)(=O)c1ccc(F)cc1F [Example 182, (E)-2,4-difluoro-N-(2-(methylthio)-5-(4-(4-(4-oxopent-2-enoyl)piperazin-1-yl)quinazolin-6-yl)pyridin-3-yl)benzene-sulfonamide]	0.65	228	202						
CCOc1ncc(-c2ccc3ncnc(N4CCN(C(=O)/C=C/C(C)=O)CC4)c3n2)cc1NS(=O)(=O)c1ccccc1F [Example 227, (E)-N-(2-ethoxy-5-(4-(4-(4-oxopent-2-enoyl)piperazin-1-yl)pyrido[3,2-d]pyrimidin-6-yl)pyridin-3-yl)-2-fluorobenzene-sulfonamide]	2.4	83.5	76.2						
CC(=O)/C=C/C(=O)N1CCN(c2ncnc3ccc(-c4cnc(OC(F)(F)F)c(NS(=O)(=O)c5ccc(F)cc5F)c4)cc23)CC1 [Example 194, (E)-2,4-difluoro-N-(5-(4-(4-(4-oxopent-2-enoyl)piperazin-1-yl)quinazolin-6-yl)-2-(trifluoromethoxy)pyridin-3-yl)benzenesulfonamide]	2.8	728	782						
COC/C=C/C(=O)N1CCN(c2ncnc3ccc(-c4cnc(OC)c(NS(=O)(=O)c5c(F)cccc5F)c4)nc23)CC1 [Example 215, (E)-2,6-difluoro-N-(2-methoxy-5-(4-(4-(4-methoxybut-2-enoyl)piperazin-1-yl)pyridino [3,2-d]pyrimidin-6-yl)pyridin-3-yl) benzene-sulfonamide]	2.4	10	6.3						
COc1ncc(-c2ccc3ncnc(C4=CCN(C(=O)/C=C/C(C)=O)CC4)c3n2)cc1NS(=O)(=O)c1sc(C)nc1C [Example 237, (E)-N-(2-methoxy-5-(4-(1-(4-oxopent-2-enoyl)-1,2,3,6-tetrahydropyridin-4-yl)pyrido[3,2-d]pyrimidin-6-yl)pyridin-3-yl)-2,4-dimethylthiazole-5-sulfonamide]	5.2	58.6	71.6						
C=CC(=O)N1CCN(c2ncnc3ccc(-c4cnc(OC)c(NS(=O)(=O)c5c(F)cccc5F)c4)nc23)CC1 [Example 214, N-(5-(4-(4-acryloyl-piperazin-1-yl)pyrido[3,2-d]pyrimidin-6-yl)-2-methoxy-pyridin-3-yl)-2,6-difluoro-benzene-sulfonamide]	2.1	12.6	6.3						
COc1ncc(-c2cc(C(F)(F)F)c3ncnc(N4CCN(C(=O)/C=C/C(C)=O)CC4)c3c2)cc1NS(=O)(=O)c1ccc(F)cc1F [Example 243, (E)-2,4-difluoro-N-(2-methoxy-5-(4-(4-(4-oxopent-2-enoyl)piperazin-1-yl)-8-(trifluoromethyl)quinazolin-6-yl)pyridin-3-yl)benzenesulfonamide]	838	720		393					
C=CC(=O)N1CCN(c2ncnc3ccc(-c4cnc(OC)c(NS(C)(=O)=O)c4)cc23)CC1 [Example 4, N-(5-(4-(4-acryloylpiperazin-1-yl)quinazolin-6-yl)-2-methoxypyridin-3-yl)methanesulfonamide]		494	494		9.5	12			
COc1ncc(-c2ccc3ncnc(N4CCN(C(=O)/C=C/C(C)=O)CC4)c3c2)cc1S(=O)(=O)Nc1ccc(F)cc1F [Example 166, (E)-N-(2,4-difluorophenyl)-2-methoxy-5-(4-(4-(4-oxopent-2-enoyl)piperazin-1-yl)quinazolin-6-yl)pyridine-3-sulfonamide]	16.1	344	369				22.3		
C=CC(=O)N1CCC(Nc2ncnc3ccc(-c4cnc(Cl)c(NS(=O)(=O)c5ccc(F)cc5F)c4)nc23)CC1 [Example 2, N-(5-(4-((1-acryloylpiperidin-4-yl)amino)pyrido[3,2-d]pyrimidin-6-yl)-2-chloropyridin-3-yl)-2,4-difluorobenzenesulfonamide]		485	485		7.3	41.8			
COc1ncc(-c2ccc3ncnc(N4CCN(C(=O)/C=C/C(C)=O)CC4)c3c2)cc1NS(=O)(=O)c1cccc2cccc(Cl)c12 [Example 96, (E)-8-chloro-N-(2-methoxy-5-(4-(4-(4-oxopent-2-enoyl)piperazin-1-yl)quinazolin-6-yl)pyridin-3-yl)naphthalene-1-sulfonamide]		35.8	90					1	171
COc1ncc(-c2ccc3ncnc(N4CCN(C(=O)/C=C\C(=O)C(F)(F)F)CC4)c3c2)cc1NS(=O)(=O)c1ccc(F)cc1F [Example 248, (Z)-2,4-difluoro-N-(2-methoxy-5-(4-(4-(5,5,5-trifluoro-4-oxopent-2-enoyl)piperazin-1-yl)quinazolin-6-yl)pyridin-3-yl)benzenesulfonamide]	2.3	115	44.1						
C=C(F)C(=O)N1CCN(c2ncnc3ccc(-c4cnc(OC)c(NS(=O)(=O)c5c(F)cccc5F)c4)nc23)CC1 [Example 211, 2,6-difluoro-N-(5-(4-(4-(2-fluoroacryloyl)piperazin-1-yl)pyrido[3,2-d]pyrimidin-6-yl)-2-methoxy-pyridin-3-yl)benzene-sulfonamide]	1.7	12.8	10.4						
COc1ncc(-c2ccc3ncnc(C4=CCN(C(=O)/C=C/C(C)=O)CC4)c3n2)cc1NS(=O)(=O)c1ccc(F)cc1F [Example 240, (E)-2,4-difluoro-N-(2-methoxy-5-(4-(1-(4-oxopent-2-enoyl)-1,2,3,6-tetrahydropyridin-4-yl)pyrido[3,2-d]pyrimidin-6-yl)pyridin-3-yl)benzenesulfonamide]	5	48.7	55.2						
COc1ncc(-c2ccc3ncnc(C4=CCN(C(=O)/C=C/C(C)=O)CC4)c3n2)cc1NS(=O)(=O)c1ccccc1F [Example 238, (E)-2-fluoro-N-(2-methoxy-5-(4-(1-(4-oxopent-2-enoyl)-1,2,3,6-tetrahydropyridin-4-yl)pyrido[3,2-d]pyrimidin-6-yl)pyridin-3-yl)benzenesulfonamide]	3.1	65.8	79.5						
COc1ncc(-c2cc3c(N4CCN(C(=O)/C=C/C(C)=O)CC4)ncnc3cn2)cc1NS(=O)(=O)c1ccc(F)cc1F [Example 245, (E)-2,4-difluoro-N-(2-methoxy-5-(4-(4-(4-oxopent-2-enoyl)piperazin-1-yl)pyrido[3,4-d]pyrimidin-6-yl)pyridin-3-yl)benzenesulfonamide]	14.9	497	827						
COc1ncc(-c2ccc3ncnc(N4CCN(C(=O)/C=C/C(C)=O)CC4)c3n2)cc1NS(=O)(=O)c1sc(C)nc1C [Example 222, (E)-N-(2-methoxy-5-(4-(4-(4-oxopent-2-enoyl)piperazin-1-yl)pyrido[3,2-d]pyrimidin-6-yl)pyridin-3-yl)-2,4-dimethyl-thiazole-5-sulfonamide]	0.49	35.1	29.1				11.7		
CC(=O)/C=C/C(=O)N1CCN(c2ncnc3ccc(-c4cnc(C)c(NS(=O)(=O)c5ccc(F)cc5F)c4)cc23)CC1 [Example 188, (E)-2,4-difluoro-N-(2-methyl-5-(4-(4-(4-oxopent-2-enoyl)piperazin-1-yl)quinazolin-6-yl)pyridin-3-yl)benzene-sulfonamide]	3.3	530	865						

Reference: patent US20250145589A1, “PYRIDINE DERIVATIVE AND USE THEREOF” (SICHUAN HUIYU PHARMACEUTICAL CO., LTD., priority 2021, published 2025)
